# Measured values reported in patent US20080182895A1 (priority 2006, published 2008).
# Like-named read-outs stand apart in the source and are kept apart here.
# Assays:
# Format in all cases: cell-based, Hepatitis C virus
# 1b, BB7 replicon (WT) = test: Replicon 3-day assay, wild type; conditions: read-out: EC50 (μM or pg/ml) ± SD
# Description: (§1) pBB7-replicon variant DNAs were linearized with Sca I, and in vitro transcription was performed using Ambion's […]® T7 High Yield Transcription kit (Austin, Tex.). Purified RNA transcripts were electroporated into Huh-7 cells in quadruplicates using a Biorad GENE PULSER® Electroporation System (Setting: 270V, 950 μF) (Hercules, Calif.). Stably transfected replicon variant cell lines were initially selected with 0.25 mg/ml G418 and stepped up to 1 mg/ml before further testing. One cell plate was stained with Crystal Violet to visualize the number of colonies and determine the colony formation efficiency. Individual cell clones from each plate were pooled and expanded for drug susceptibility testing.
# (§2) The contribution of individual amino acid changes on drug resistance was assessed in replicon variants containing single amino acid mutations in NS5B in the background of the genotype 1b, BB7 adaptive replicon (Blight et al. (2000) Science 290:1972-74).
# (§3) Drug susceptibility of the replicon-containing cells to various compounds was evaluated as described previously (Howe et al. (2004) Antimicrobial Agents Chem. 48:4813-21). Briefly, cells were treated with increasing concentrations of compounds in medium containing 2% FCS and no G418 for three days at 37° C. and 5% CO2. After incubation, total RNA from the replicon-containing cells was isolated. The levels of HCV, glyceraldehyde 3-phosphate dehydrogenase (GAPDH) and ribosomal (rRNA) RNAs were quantified using TAQMAN® (PE Applied Biosystems, Foster City, Calif.) reverse transcriptase PCR reactions. The amounts of HCV, 18S ribosomal, and GAPDH RNAs in each sample were estimated by comparing the number of cycles during the exponential phase of the PCR amplification with those in the corresponding standard curves. HCV RNA standards used for the construction of the standard curve were prepared by extracting the total RNA from the Clone A cells. The RNA sample was sent to National Genetics Institute to quantify HCV RNA. Total RNA extracted from Clone A cells was quantified by O.D.260 measurement and used for construction of the standard curves of rRNA and GAPDH. The concentrations of the compounds that inhibit 50% of the HCV RNA level (EC50) were determined using the MDL® LIFE SCIENCE WORKBENCH® (LSW) Data Analysis software (MDL Information Systems, San Leandro, Calif.) in Microsoft EXCEL®. The amounts of HCV or GAPDH RNAs in the samples were expressed as HCV RNA (copies) or GAPDH (ng), respectively, per μg of total RNA using rRNA as a marker for total RNA measurement.
# 1b, BB7-C316Y replicon = test: Replicon variant 3-day assay; conditions: for Fold Resistance: C316Y replicon vs 1b, BB7 (WT); for EC50: read-out: EC50 (μM or pg/ml) ± SD
# Description: as §1, §2, §3
# [1] = tested on: 1b, BB7 replicon variants with single NS5B mutations; test: Replicon variant assay, several variants taken together; conditions: replicon variants with HCV-796-associated mutations
# Description: as §1, §2, §3
Structure (SMILES),"EC50 (1b, BB7 replicon (WT); 1b, BB7 (WT) replicon)","Fold Resistance (1b, BB7-C316Y replicon)","EC50 (1b, BB7-C316Y replicon; C316Y replicon)","EC50 (1b, BB7 replicon (WT); Hepatitis C virus)",susceptibility of HCV-796-resistant replicon variants to other antiviral agents (in words) ([1]; listed as Ribavirin),susceptibility of HCV-796-resistant replicon variants to other antiviral agents (in words) ([1]; listed as ribavirin),"inhibition of the C316Y replicon compared with wild type (in words) (1b, BB7-C316Y replicon; C316Y replicon variant vs wild type replicon)","EC50 (1b, BB7-C316Y replicon; Hepatitis C virus)"
"CCC[C@]1(CC(=O)O)OCCc2c1[nH]c1c(C)ccc(C#N)c21 [HCV-371, [(1R)-5-cyano-8-methyl-1-propyl-1,3,4,9-tetrahydropyano[3,4-b]indol-1-yl]acetic acid]",12.2 ± 1.8 µM,0.9 fold,10.8 ± 0.8 µM,–,–,–,–,–
"NC(=O)c1ncn([C@@H]2O[C@H](CO)[C@@H](O)[C@H]2O)n1 [RBV, 1-β-D-ribofuranosyl-1H-1,2,4-triazole-3-carboxamide, reference compound]",–,1.8 fold,–,133 ± 40.5 µM,inhibits,remained susceptible,as efficiently as in the wild type replicon,201 ± 36.7 µM
